The results in this text go back to ChEMBL document CHEMBL4425105, “Discovery of (S)-1-(1-(4-Chloro-3-fluorophenyl)-2-hydroxyethyl)-4-(2-((1-methyl-1H-pyrazol-5-yl)amino)pyrimidin-4-yl)pyridin-2(1H)-one (GDC-0994), an Extracellular Signal-Regulated Kinase 1/2 (ERK1/2) Inhibitor in Early Clinical Development” (J Med Chem, 2016).

The nature of data set [1]: Drug level in rat hepatocytes treated with (S)-1-(1-(4-chloro-3-fluorophenyl)-2-hydroxyethyl)-4-(2-(tetrahydro-2H-pyran-4-ylamino)pyrimidin-4-yl)pyridin-2(1H)-one measured after 3 hrs by LC/MS analysis. The format is ADME, cell-based, Hepatocyte.
Data set [2] is described as follows: Drug level in cynomolgus monkey hepatocytes treated with (S)-1-(1-(4-chloro-3-fluorophenyl)-2-hydroxyethyl)-4-(2-(tetrahydro-2H-pyran-4-ylamino)pyrimidin-4-yl)pyridin-2(1H)-one measured after 3 hrs by LC/MS analysis. The format is ADME, cell-based, Macaca fascicularis, Hepatocyte.
The nature of data set [3]: Drug level in dog hepatocytes treated with (S)-1-(1-(4-chloro-3-fluorophenyl)-2-hydroxyethyl)-4-(2-(tetrahydro-2H-pyran-4-ylamino)pyrimidin-4-yl)pyridin-2(1H)-one measured after 3 hrs by LC/MS analysis. The format is ADME, cell-based, Canis lupus familiaris, Hepatocyte.
Data set [4] in a line: Drug level in human hepatocytes treated with (S)-1-(1-(4-chloro-3-fluorophenyl)-2-hydroxyethyl)-4-(2-(tetrahydro-2H-pyran-4-ylamino)pyrimidin-4-yl)pyridin-2(1H)-one measured after 3 hrs by LC/MS analysis. In kind it is ADME, cell-based, Hepatocyte.
The nature of data set [5]: Drug level in mouse hepatocytes treated with (S)-1-(1-(4-chloro-3-fluorophenyl)-2-hydroxyethyl)-4-(2-(tetrahydro-2H-pyran-4-ylamino)pyrimidin-4-yl)pyridin-2(1H)-one measured after 3 hrs by LC/MS analysis. The format is ADME, cell-based, Hepatocyte.
The target in data set [6] is Mitogen-activated protein kinase 1 (Homo sapiens, UniProt P28482).
Description: Inhibition of ERK2 (unknown origin)
Data set [7] deals with Mitogen-activated protein kinase 3 (Homo sapiens, UniProt P27361).
Description: Inhibition of ERK1 (unknown origin)
The subject of a further data set is Cytochrome P450. The data set can be described thus: Inhibition of CYP450 (unknown origin). In kind it is ADME, protein assay. The settings on record: human.
Data set [8] is described as follows: Drug metabolism in cynomolgus monkey hepatocytes assessed as formation of 3-(4-(1-((S)-1-(4-chloro-3-fluorophenyl)-2-hydroxyethyl)-2-oxo-1,2-dihydropyridin-4-yl)pyrimidin-2-ylamino)-5-hydroxypentanoic acid measured after 3 hrs by LC/MS analysis. The format is ADME, cell-based, Macaca fascicularis, Hepatocyte.
The nature of data set [9]: Drug metabolism in human hepatocytes assessed as formation of 3-(4-(1-((S)-1-(4-chloro-3-fluorophenyl)-2-hydroxyethyl)-2-oxo-1,2-dihydropyridin-4-yl)pyrimidin-2-ylamino)-5-hydroxypentanoic acid measured after 3 hrs by LC-MS/MS analysis. The format is ADME, cell-based, Hepatocyte.
Data set [10] is described as follows: Drug metabolism in rat hepatocytes assessed as formation of 3-(4-(1-((S)-1-(4-chloro-3-fluorophenyl)-2-hydroxyethyl)-2-oxo-1,2-dihydropyridin-4-yl)pyrimidin-2-ylamino)-5-hydroxypentanoic acid measured after 3 hrs by LC-MS/MS analysis. In kind it is ADME, cell-based, Hepatocyte.
Data set [11] is described as follows: Fraction unbound in mouse plasma. The format is ADME, cell-free.
Data set [12] in a line: Permeability from apical to basolateral side of MDCK cells. In kind it is ADME, cell-based, Canis lupus familiaris. To be noted: dog, read-out: permeability.
Data set [13] in a line: Drug metabolism in dog hepatocytes assessed as formation of 3-(4-(1-((S)-1-(4-chloro-3-fluorophenyl)-2-hydroxyethyl)-2-oxo-1,2-dihydropyridin-4-yl)pyrimidin-2-ylamino)-5-hydroxypentanoic acid measured after 3 hrs by LC-MS/MS analysis. In kind it is ADME, cell-based, Canis lupus familiaris, Hepatocyte.
The test system of data set [14] is Mus musculus. Nature of the data set: T>IC50 for inhibition of p90RSK phosphorylation in CD-1 mouse at 10 mg/kg, po.
A short description of data set [15]: Drug metabolism in mouse hepatocytes assessed as formation of 3-(4-(1-((S)-1-(4-chloro-3-fluorophenyl)-2-hydroxyethyl)-2-oxo-1,2-dihydropyridin-4-yl)pyrimidin-2-ylamino)-5-hydroxypentanoic acid measured after 3 hrs by LC-MS/MS analysis. The format is ADME, cell-based, Hepatocyte.
Data set [16] is filed under the species Mus musculus.
Description: In vivo inhibition of p90RSK phosphorylation in mouse xenografted with human HTC116 cells assessed as total plasma concentration required for efficacy
In the next data set the target is Cytochrome P450 3A4 (Homo sapiens, UniProt P08684).
The nature of another data set: in vivo. To be noted: CD-1, mouse, po.
The subject of a further data set is HCT-116. The data set can be described thus: Antitumor activity against human HCT116 cells xenografted in mouse assessed as tumor growth inhibition at 7.5 mg/kg, po qd measured after 21 days relative to vehicle-control. The format is functional. The settings on record: HCT-116, po, 504 h. For orientation: A xenograft is tissue or cells of one species grown in another, often human tumour cells in immunodeficient mice.

Chain of Mitogen-activated protein kinase 3 (P27361 whole entry): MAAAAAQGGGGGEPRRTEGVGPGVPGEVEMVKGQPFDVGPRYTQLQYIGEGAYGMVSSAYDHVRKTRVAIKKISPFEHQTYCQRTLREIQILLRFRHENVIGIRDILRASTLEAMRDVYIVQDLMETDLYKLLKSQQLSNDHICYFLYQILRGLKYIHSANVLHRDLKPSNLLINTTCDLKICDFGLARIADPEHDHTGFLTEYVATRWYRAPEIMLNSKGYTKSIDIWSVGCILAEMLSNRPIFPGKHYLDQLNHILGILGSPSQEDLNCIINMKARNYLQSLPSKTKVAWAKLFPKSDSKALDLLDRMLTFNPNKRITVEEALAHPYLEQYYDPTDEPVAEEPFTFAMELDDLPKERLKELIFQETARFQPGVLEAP
Chain of Mitogen-activated protein kinase 1 (P28482 whole entry): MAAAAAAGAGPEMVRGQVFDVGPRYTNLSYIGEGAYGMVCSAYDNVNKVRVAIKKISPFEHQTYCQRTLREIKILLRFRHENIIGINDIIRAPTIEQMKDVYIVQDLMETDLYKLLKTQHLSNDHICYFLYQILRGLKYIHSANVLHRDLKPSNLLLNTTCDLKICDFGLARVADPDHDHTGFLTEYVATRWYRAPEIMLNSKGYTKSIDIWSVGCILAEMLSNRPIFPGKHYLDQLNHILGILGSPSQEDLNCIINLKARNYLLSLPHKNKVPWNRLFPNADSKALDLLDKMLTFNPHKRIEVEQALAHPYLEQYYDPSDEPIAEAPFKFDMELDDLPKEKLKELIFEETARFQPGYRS
Chain of Cytochrome P450 3A4 (P08684 whole entry): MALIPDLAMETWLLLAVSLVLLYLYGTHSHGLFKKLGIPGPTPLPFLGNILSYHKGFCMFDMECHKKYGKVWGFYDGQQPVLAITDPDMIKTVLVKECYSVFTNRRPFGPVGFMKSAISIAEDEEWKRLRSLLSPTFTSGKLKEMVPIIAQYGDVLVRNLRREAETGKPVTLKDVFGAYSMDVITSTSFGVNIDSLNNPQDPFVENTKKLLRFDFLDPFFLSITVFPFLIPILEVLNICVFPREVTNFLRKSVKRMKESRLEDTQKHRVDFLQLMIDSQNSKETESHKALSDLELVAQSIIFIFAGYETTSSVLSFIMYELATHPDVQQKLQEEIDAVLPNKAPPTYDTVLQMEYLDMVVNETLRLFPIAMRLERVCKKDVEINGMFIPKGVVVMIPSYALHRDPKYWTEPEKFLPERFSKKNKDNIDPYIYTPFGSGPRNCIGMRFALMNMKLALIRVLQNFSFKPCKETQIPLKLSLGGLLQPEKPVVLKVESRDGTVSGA
Description for Cytochrome P450 3A4: Inhibition of CYP3A4 (unknown origin)
Description for in vivo: Oral bioavailability in CD-1 mouse

Regarding `O=C(O)CC(CCO)Nc1nccc(-c2ccn([C@H](CO)c3ccc(Cl)c(F)c3)c(=O)c2)n1` (some centres not stated), the Drug metabolism result in [1], in data set [2], in data set [3], in data set [4] and in data set [5] was “Metabolite_Detected” each time.

As a reminder, the IC50 is the point on the concentration scale where inhibition reaches its midpoint. As to `Cc1cnn(C)c1Nc1nccc(-c2ccn([C@H](CO)c3ccc(Cl)c(F)c3)c(=O)c2)n1`, the IC50 was 490 nM in data set [6] and 1070 nM in [7].

For the molecule `Cn1ccc(Nc2nccc(-c3ccn([C@H](CO)c4ccc(Cl)c(F)c4)c(=O)c3)n2)n1`, the IC50 in data set [6] is 37 nM; in data set [7], 85 nM.

Turning to `CC(C)n1cc(Nc2nccc(-c3ccn([C@H](CO)c4ccc(Cl)c(F)c4)c(=O)c3)n2)cn1`, in the data set on Cytochrome P450, the “inhibition (INH)” value is “Not Active”. Besides, the IC50 in data set [6] amounted to 10 nM; in [7], 19 nM.

Regarding `CCc1nn(C)cc1Nc1nccc(-c2ccn([C@H](CO)c3ccc(Cl)c(F)c3)c(=O)c2)n1`, in the data set on Cytochrome P450, the “inhibition (INH)” value is reported as “Not Active”. The values for the IC50 in [6] and in [7] were 23 nM and 43 nM, respectively.

In the case of `CCn1cc(Nc2nccc(-c3ccn([C@H](CO)c4ccc(Cl)c(F)c4)c(=O)c3)n2)c(C)n1`, the “inhibition (INH)” value with Cytochrome P450 is reported as “Not Active”. In data set [7], this molecule returned an IC50 of 18 nM.

Broadly, the fraction unbound is free concentration divided by total concentration. Consider `O=c1cc(-c2ccnc(NC3CCOCC3)n2)ccn1[C@H](CO)c1ccc(Cl)c(F)c1`, for which the Drug metabolism result in data set [8], in data set [9], in data set [10], in data set [13] and in [15] was “Metabolite_Detected” in each case. In addition, the fraction unbound in data set [11] came out at 0.058. Further, in data set [12], the Papp A→B was determined as 3.9 ×10⁻⁶ cm/s. The molecule also displayed a Time with Mus musculus [14] of 8 h. The molecule also registered a Cp in the data set filed under Mus musculus [16] of 200 nM.

Turning to `Cn1cc(Nc2nccc(-c3ccn([C@H](CO)c4ccc(Cl)c(F)c4)c(=O)c3)n2)c(C(F)(F)F)n1`, the “inhibition (INH)” value in the data set with Cytochrome P450 is “Not Active”. The IC50 in [6] was determined as 290 nM; in data set [7], 550 nM.

As to `O=c1cc(-c2ccnc(Nc3cc[nH]n3)n2)ccn1[C@H](CO)c1ccc(Cl)c(F)c1`, the IC50 turned out to be 5650 nM in data set [6] and 9610 nM in data set [7].

As to `Cc1n[nH]c(C)c1Nc1nccc(-c2ccn([C@H](CO)c3ccc(Cl)c(F)c3)c(=O)c2)n1`, the “inhibition (INH)” value in the data set with Cytochrome P450 is given as “Not Active”. Besides, the IC50 amounted to 240 nM in data set [6] and 510 nM in data set [7].

With `CCn1nc(C)cc1Nc1nccc(-c2ccn([C@H](CO)c3ccc(Cl)c(F)c3)c(=O)c2)n1`, the IC50 is 89 nM in data set [6] and 150 nM in data set [7].

With `CCc1cc(Nc2nccc(-c3ccn([C@H](CO)c4ccc(Cl)c(F)c4)c(=O)c3)n2)n(C)n1`, the IC50 in data set [6] turned out to be 17 nM; in [7], 27 nM.

`Cn1cc(Nc2nccc(-c3ccn([C@H](CO)c4ccc(Cl)c(F)c4)c(=O)c3)n2)cn1`: in the data set with Cytochrome P450, the “inhibition (INH)” value is “Not Active”. The IC50 came out at 4.1 nM in [6] and 7.9 nM in data set [7].

Take `Cc1c(Nc2nccc(-c3ccn([C@H](CO)c4ccc(Cl)c(F)c4)c(=O)c3)n2)cnn1C`: the “inhibition (INH)” value in the data set with Cytochrome P450 was “Not Active”. For the same molecule, the IC50 in [6] was 29 nM; in data set [7] it was 62 nM.

With `Cc1cc(Nc2nccc(-c3ccn([C@H](CO)c4ccc(Cl)c(F)c4)c(=O)c3)n2)ccn1`, the values for the IC50 (in [6]; on Cytochrome P450 3A4; in data set [7]) were 0.94 nM, 340 nM and 3.9 nM, respectively.

`Cc1cc(Nc2nccc(-c3ccn([C@H](CO)c4ccc(Cl)c(F)c4)c(=O)c3)n2)n(C)n1` yielded an IC50 in [7] of 20 nM.

In general, bioavailability refers to dose-corrected exposure relative to a reference, in per cent. In the case of `Cc1nn(C)cc1Nc1nccc(-c2ccn([C@H](CO)c3ccc(Cl)c(F)c3)c(=O)c2)n1`, the “inhibition (INH)” value with Cytochrome P450 is reported as “Not Active”. The molecule further showed a bioavailability in the data set “in vivo” of 95%. Further, in data set [7], the IC50 was found to be 13 nM.

As to `CCn1cc(Nc2nccc(-c3ccn([C@H](CO)c4ccc(Cl)c(F)c4)c(=O)c3)n2)cn1`, the “inhibition (INH)” value in the data set on Cytochrome P450 is “Not Active”. The half-maximal inhibitory concentration (IC50) in data set [6] came out at 1.8 nM; in data set [7] it was 5 nM.

As for `Cn1nc(C(F)(F)F)cc1Nc1nccc(-c2ccn([C@H](CO)c3ccc(Cl)c(F)c3)c(=O)c2)n1`, the IC50 in data set [6] stood at 52 nM; in [7] it was 74 nM.

On to `CCn1nccc1Nc1nccc(-c2ccn([C@H](CO)c3ccc(Cl)c(F)c3)c(=O)c2)n1`, for which the IC50 is 16 nM in data set [6] and 26 nM in data set [7].

In general, inhibition in vivo refers to the share of the control response that was lost under treatment. For `O=C(c1ccc(F)c(F)c1Nc1ccc(I)cc1F)N1CC(O)([C@@H]2CCCCN2)C1` [COBIMETINIB], the inhibition in vivo at 7.5 mg/kg in the data set on HCT-116 was determined as 58%.

With `Cc1n[nH]cc1Nc1nccc(-c2ccn([C@H](CO)c3ccc(Cl)c(F)c3)c(=O)c2)n1`, the “inhibition (INH)” value in the data set on Cytochrome P450 is recorded as “Not Active”. Besides, the IC50 in data set [6] was 0.9 nM; in data set [7] it was 3.8 nM.
